# Experimental data as given in US7893299B2, “Interleukin-1 and tumor necrosis factor-αmodulators; syntheses of such modulators and methods of using such modulators” (Nereus Pharmaceuticals, Inc., priority 2005, dated 2011).
# Like-named read-outs stand apart in the source and are kept apart here.
# What was measured:
# [1] = system: U266 (MM); experiment: 48 hr cytotoxicity, U266; format: cell-based, human
# Protocol: (§1) B16-F10 (ATCC; CRL-6475), DU 145 (ATCC; HTB-81), HEK293 (ATCC; CRL-1573), HT-29 (ATCC; HTB-38), LoVo (ATCC; CCL-229), MDA-MB-231 (ATCC; HTB-26), MIA PaCa-2 (ATCC; CRL-1420), NCI-H292 (ATCC; CRL-1848), OVCAR-3 (ATCC, HTB-161), PANC-1 (ATCC; CRL-1469), PC-3 (ATCC; CRL-1435), RPMI 8226 (ATCC; CCL-155) and U266 (ATCC; TIB-196) are maintained in appropriate culture media. The cells are cultured in an incubator at 37° C. in 5% CO2 and 95% humidified air.
# (§2) For cell growth inhibition assays, B16-F10, DU 145, HEK293, HT-29, LoVo, MDA-MB-231, MIA PaCa-2, NCI-H292, OVCAR-3, PANC-1, PC-3, RPMI 8226 and U266 cells are seeded at 1.25×10^3, 5×10^3, 1.5×10^4, 5×10^3, 5×10^3, 1×10^4, 2×10^3, 4×10^3, 1×10^4, 7.5×10^3, 5×10^3, 2×10^4, 2.5×10^4 cells/well respectively in 90 μl complete media into Corning 3904 black-walled, clear-bottom tissue culture plates. 20 mM stock solutions of compounds of Formula II, IIA, and IIB are prepared in 100% DMSO, aliquoted and stored at −80° C. Compounds of Formula II, IIA, and IIB are serially diluted and added in triplicate to the test wells resulting in final concentrations ranging from of 20 μM to 0.2 pM. […]
# (§3) Following 48 hours of drug exposure, 10 μl of 0.2 mg/ml resazurin (obtained from Sigma-Aldrich Chemical Co.) in Mg^2+, Ca^2+ free phosphate buffered saline is added to each well and the plates are returned to the incubator for 3-6 hours. Since living cells metabolize Resazurin, the fluorescence of the reduction product of Resazurin is measured using a Fusion microplate fluorometer (Packard Bioscience) with λex=535 nm and λem=590 nm filters. […]
# (§4) The cytotoxicity assays were performed by seeding individual cell lines at appropriate density in the 96 well flat-bottomed plates and allowed to attach for 24 hours at 37° C., 5% CO2 and 95% humidified air (RPMI 8226 and U266 cells were plated in 96 well plates on the day of compound addition). […] Cell viability was assessed 48 hours later by measuring the fluorescence of the reduction product of Resazurin by a Fusion microplate fluorometer (PerkinElmer) with λex=535 nm and λem=590 nm filters. […]
# [2] = system: PC3 (Prostate); experiment: 48 hr cytotoxicity, PC-3; format: cell-based, human
# Protocol: as §1, §2, §3, §4
# [3] = system: cells obtained from Bortezomib-refractory MM patient; experiment: viability of purified patient MM cells; format: cell-based; conditions: in vitro
# From the text: (§5) Besides nuclear condensation, NF-KB inhibitor triggered proteolytic cleavage of poly (ADP ribose) polymerase (PARP), a hallmark of apoptosis.
# [4] = system: peripheral blood mononuclear cells; experiment: viability of peripheral blood mononuclear cells from normal healthy donors; format: cell-based
# From the text: as §5
# [5] = system: IκBα phosphorylation; experiment: phosphorylation level of IκBα in LPS-stimulated HPBMC (western blot); format: cell-based, Human; conditions: 13 μM, 20 ng/ml LPS, compared with DMSO control
# Protocol: One ml/well of 3×10^6/ml HPBMC were seeded in 6-well plate in LGM-3 medium and cultured for 12 hr at 37° C., 5% CO2 and 95% humidified air. Final concentration of 13 μM for formula (IIB-A1) (or 10 μM for TTL3) was added to HPBMC for 1 hr. DMSO was used as a control. Cells were then stimulated with 20 ng/ml LPS diluted in LGM-3 medium from 1 mg/ml stock solution for 30 min, 1 hr, 2 hr and 4 hr. At the end of each time point, cells were harvested by centrifugation and cell pellets were washed once in ice-cold 1× Dulbecco's Phosphate buffered Saline (DPBS). To prepare samples for SDS Polyacrylamide Gel Electrophoresis (SDS-PAGE), cells were lysed in RIPA buffer (50 mM Tris-HCl, pH7.4, 0.9% NaCl, 1% Triton X-100, 0.25% Na-deoxycholate, 1 mM EDTA, 2 mM Na3VO4 and 1× protease inhibitors cocktail) for 15 min on ice. Cell lysates were cleared by centrifugation at 14,000 rpm, 4° C. for 10 min. Protein concentrations of cell lysates were determined by BCA protein assay kit prior to SDS-PAGE. Equal amount of proteins from various cell lysates were resolved on 10% NuPage MES precast gels and transferred to nitrocellulose membranes according to the manufacturer's instructions. […]
# [6] = system: LPS/D-Gal administration; experiment: mortality after LPS/D-Gal administration; format: in vivo; conditions: i.p., TTL3 administration 45 minutes prior to LPS
smiles,measurement,setting,value
"C=CC(=O)C1(C)CCCC2(C)C3=CCC(C)(C=C)C[C@@H]3CC[C@H]12 (stereo in doubt) [NPI-1387, 1-[(1S,4aS,7R)-1,4a,7-Trimethyl-7-vinyl-1,2,3,4,4a,6,7,8,8a,9,10,10a-dodecahydro-1-phenanthrenyl]-2-propen-1-one]",IC50,[1],7 ± 1.9 µM
same,IC50,"[1]; Homo sapiens, U-266, 48 h",8.7 ± 6.4 µM
same,IC50,[2],10 ± 2 µM
same,IC50,"[2]; Homo sapiens, 48 h",11 ± 2 µM
same,viability of cells from Bortezomib-refractory MM patient,[3],decreases the viability
same,toxicity against / change in viable peripheral blood mononuclear cells,[4],relatively minimal
same,toxicity against / change in viable peripheral blood mononuclear cells,[4]; listed as NF-KB inhibitor,no significant toxicity
"C=C[C@@]1(C)CCC=C2[C@H]1CC[C@@H]1[C@](C)(C(=O)NC3CCCCC3)CCC[C@@]21C [Formula (IIB-A1), N-Cyclohexylamide Derivative of TTL]",level of IκBα phosphorylation in LPS-stimulated HPBMC,[5]; listed as Formula (IIB-a1),decrease
same,level of IκBα phosphorylation in LPS-stimulated HPBMC,[5]; listed as formula (IIB-A1),effectively inhibited
C=C[C@@]1(C)CCC=C2[C@H]1CC[C@@H]1[C@](C)(C(=O)OC)CCC[C@@]21C [TTL3],Mortality 24 hours,[6],2/10
same,Mortality 48 hours,[6],2/10
